From patent publication US20220026421A1, “METHOD, SURFACE, PARTICLE AND KIT FOR THE DETECTION OF ANALYTES IN SAMPLES” (TECHNISCHE UNIVERSITÄT DRESDEN, priority 2018, published 2022)

Target: EcEPSPS (UniProt P0A6D3+Q04571)
Conditions: FIG. 2; surfaces incubated with 10 mM solution, then glyphosate-coated particles; Ccg2 / Ccg2_GS_EcEPSPS coated glass
Procedure: The immobilised enzymes on the surface interact attractively with the particle-bound competitor, resulting in a characteristic contact area between the surface and the particle. The dissolved analyte competes with the competitor for the binding sites on the surface. […] The determination of the contact and particle radius to ascertain the adhesion energy takes place by means of reflection interference contrast microscopy.
The surfaces were then incubated with either 10 mM glyphosate or glufosinate solutions and then with linker-functionalised particles with or without glyphosate coating.
The surfaces were then incubated with glyphosate solutions of different concentrations and then with glyphosate-coated particles with ethylenediamine or pentaglycine linkers. […]
The recording of the radial intensity profiles of the HGS on the functionalised surface took place in the reflection interference contrast method by means of an inverted microscope system (Olympus IX 73) with a 60× immersion objective (Olympus UPIanSAPO 60× Oil Microscope Objective). From the recorded profiles, the contact radii a of particles and surface as well as the particle radii RHES could be automatically ascertained subsequently by means of software specially developed for this purpose. According to the Johnson-Kendall-Roberts model [2], these quantities are related to the adhesion energy Wadh in the following context: […]

Question: With `O=C(O)CNCP(=O)(O)O` [glyphosate, N-(phosphonomethyl)glycine] as the compound, how does the “influence of soluble compound on the adhesion energy between glyphosate-coated particle and surface” value read?
Answer: in the range of the negative control
